PubChem BioAssay AID2744 (NMMLSC, 2010)
The source made the active and inactive calls.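 The calls were made as follows: active = fitted half-maximal concentration for changing reporter fluorescence at or below a set limit; inactive = the rest.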

The molecules below were run against Citrate synthase, peroxisomal (Saccharomyces cerevisiae (strain ATCC 204508 / S288c)) (UniProt P08679) (assay: yeast TOR pathway CIT2-GFP reporter potency – flow cytometry, MLPCN hits, dose response (AID 2744)). Conditions: S. cerevisiae CIT2-GFP strain, 3 h, at 33 µM (top of the series).
Citrate synthase, peroxisomal (Saccharomyces cerevisiae (strain ATCC 204508 / S288c)), sequence (P08679 whole entry, looked up): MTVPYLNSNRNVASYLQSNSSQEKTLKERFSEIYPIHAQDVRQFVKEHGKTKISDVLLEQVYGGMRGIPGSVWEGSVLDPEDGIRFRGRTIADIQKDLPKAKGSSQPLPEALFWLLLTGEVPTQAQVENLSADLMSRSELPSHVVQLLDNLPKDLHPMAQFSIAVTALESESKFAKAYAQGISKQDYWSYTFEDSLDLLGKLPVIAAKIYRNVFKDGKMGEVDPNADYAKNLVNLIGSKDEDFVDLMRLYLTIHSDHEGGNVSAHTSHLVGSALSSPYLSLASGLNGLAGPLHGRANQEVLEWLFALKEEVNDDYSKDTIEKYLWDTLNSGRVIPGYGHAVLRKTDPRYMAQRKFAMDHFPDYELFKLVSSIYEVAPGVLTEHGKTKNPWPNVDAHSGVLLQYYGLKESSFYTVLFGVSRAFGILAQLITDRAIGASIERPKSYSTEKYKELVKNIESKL

SMILES	GFP fluorescence, higher = induction
O=C1Nc2ccc(Br)cc2/C1=C/C(=O)c1ccc2c(c1)OCO2	inactive
Cc1ccc(/C=C2/C(=O)ON=C2c2ccccc2)o1	inactive
O=C(c1ccc(Cl)c([N+](=O)[O-])c1)N1CCN(c2ccccc2)CC1	inactive
N/C(Cc1ccc(Cl)cc1Cl)=N\OC(=O)c1ccccc1	inactive
COc1ccc2c(c1)c(/C=C/c1cc[n+](C)cc1)cn2C	inactive
CN(C)NC(=S)Nc1ccc(S(=O)(=O)N2CCCCC2)cc1	inactive
O=C(CS(=O)c1ccccc1[N+](=O)[O-])Oc1ccc(Br)cc1 (stereo not drawn)	inactive
COc1ccc(C=C2C(=O)c3ccccc3C2=O)cc1O	inactive
Nc1nc(N)c2nc(CNc3ccc(C(=O)NC(CCC(=O)O)C(=O)O)cc3)cnc2n1 (stereo not drawn)	inactive
O=C(Nc1cccc(-c2csc(Nc3ccccc3)n2)c1)c1ccccc1	inactive
O=C(/C=C/c1cccc(Cl)c1)c1nc2ccccc2[nH]1	inactive
CCCCCn1c(=O)c(C(=O)Nc2nc3ccccc3[nH]2)c(O)c2ccccc21	inactive
COc1ccc(C(=O)NNC(=S)NC(=O)/C=C/c2cccs2)cc1	inactive
Cc1ccc2nc(Cl)c3nnnn3c2c1	inactive
CCCS(=O)(=O)c1nnnn1-c1cccc(OC)c1	inactive
O=C(C#Cc1ccccc1)c1ccco1	inactive
CC1=NOC(=O)/C1=C\c1ccc(-c2cc(Cl)ccc2Cl)o1	inactive
O=C1Oc2ccccc2C(=O)/C1=C/c1ccccc1O	inactive
COc1cccc(N=Nc2ccc(O)c3ncccc23)c1	inactive
CCOc1ccc(C(Nc2cccnc2)c2cc(Cl)c3cccnc3c2O)cc1 (stereo not drawn)	inactive
O=C(Cc1ccc(Cl)cc1)NNC(=S)NC(=O)c1cccs1	inactive
COc1ccc(/C=C/C(=O)c2cc(Br)ccc(=O)c2O)cc1	inactive
CCc1cc(C(=O)Nc2nc(-c3ccccn3)cs2)sc1C	inactive
O=c1cc(CSc2ccc(Cl)cc2)nc(-c2ccccn2)[nH]1	inactive

SMILES	GFP fluorescence, higher = induction
O=C(Nc1ccc(N2CCOCC2)cc1)C1CCN(S(=O)(=O)c2ccc3c(c2)OCCO3)CC1	inactive
Cc1ccc(/C=N/Nc2ncc(Cl)cc2Cl)s1	inactive
O=C(NOC(=O)c1ccccc1)c1ccccc1	inactive
O=C(Oc1c(Cl)cc(Cl)c2cccnc12)c1ccco1	inactive
COC(=O)CCC(=O)OC1(C)C(=O)C2=COC(c3ccc(OC)cc3)=CC2=C(Br)C1=O (stereo not drawn)	inactive
Nc1ccccc1C#CC(=O)c1ccccc1	inactive
C#CCOCCOCCOCCNc1nc(N2CCN(C(=O)CCCCCCCCCCNC(=O)[C@H](CCCCN)n3cc(CCCC(=O)O)nn3)CC2)nc(N2CCN(C(=O)CCCCCCCCCCNC(=O)[C@H](CCCN=C(N)N)n3cc(C[C@@H](C)CC)nn3)CC2)n1	inactive
C=CCN1C(=O)/C(=C/c2ccc(-c3ccc(F)cc3)o2)SC1=S	inactive
Oc1c(C(Nc2nc3ccccc3s2)c2ccco2)ccc2cccnc12 (stereo not drawn)	inactive
Oc1ccc(N=Nc2ccccc2)o1	inactive
CC(C)(C)c1cc(C(c2cccnc2)N2CCN(CCO)CC2)cc(C(C)(C)C)c1O (stereo not drawn)	inactive
O=C1N(c2ccccc2C(F)(F)F)O[C@@]1(c1ccccc1)C1CCCC1	inactive
CCOC(=O)c1ccc(N=Cc2nc(-c3ccccc3)oc2OC(C)=O)cc1	inactive
O=C(O)c1ccccc1SC1CC(=O)N(c2ccc3c(c2)OCO3)C1=O (stereo not drawn)	inactive
Cc1cccc(NC(c2ccc(C)s2)c2ccc3ccc(C)nc3c2O)n1 (stereo not drawn)	inactive
Cc1ccc(C2=NN(S(C)(=O)=O)C(c3ccc4c(c3)OCO4)C2)cc1 (stereo not drawn)	inactive
CCCc1cc(=O)oc2cc(C)cc(OCC(=O)NC3CC3)c12	inactive
CC(C)(C)n1nc(-c2ccc(F)cc2)c2c(N)ncnc21	inactive
CCc1cccc2sc(N3CCN(C(=O)c4ccc([N+](=O)[O-])o4)CC3)nc12	inactive
COc1ccccc1NC1=C(Cl)C(=O)N(c2ccccc2)C1=O	inactive
Cc1c(Br)c(=O)oc2c(Br)c(O)c(O)cc12	inactive
O=[N+]([O-])c1ccc(O)c(/C=N/Nc2ccccn2)c1	inactive
Cc1[nH]c2ccccc2c1C(=O)COC(=O)c1ccc([N+](=O)[O-])s1	inactive
CN1C(=O)/C(=N\OC(=O)c2cccc3ccccc23)c2ccccc21	inactive
